Measurements from ChEMBL document CHEMBL4043209, “1-Phenyl-1H-indole derivatives as a new class of Bcl-2/Mcl-1 dual inhibitors: Design, synthesis, and preliminary biological evaluation” (Bioorg Med Chem, 2017).

Experiments:
Bcl-2-like protein 1 = Bcl-2-like protein 1 (Homo sapiens, UniProt Q07817); test: Inhibition of 5-FAM-Bid-BH3 peptide binding to Bcl-XL (unknown origin) pre-incubated for 30 mins followed by further incubation with 5-FAM-Bid-BH3 peptide for 20 mins by fluorescence polarization assay
K562 = test: Antiproliferative activity against human K562 cells incubated for 48 hrs by MTT assay; format: functional, cell-based; details: K562, 48 h
PC-3 = test: Antiproliferative activity against human PC3 cells incubated for 48 hrs by MTT assay; format: functional, cell-based; details: PC-3, 48 h
MDA-MB-231 = test: Antiproliferative activity against human MDA-MB-231 cells incubated for 48 hrs by MTT assay; format: functional, cell-based; details: MDA-MB-231, 48 h
[1] = target: Apoptosis regulator Bcl-2 (Homo sapiens, UniProt P10415); test: Inhibition of 5-FAM-Bid-BH3 peptide binding to Bcl2 (unknown origin) pre-incubated for 30 mins followed by further incubation with 5-FAM-Bid-BH3 peptide for 20 mins by fluorescence polarization assay
[2] = target: Induced myeloid leukemia cell differentiation protein Mcl-1 (Homo sapiens, UniProt Q07820); test: Inhibition of 5-FAM-Bid-BH3 peptide binding to Mcl1 (unknown origin) pre-incubated for 30 mins followed by further incubation with 5-FAM-Bid-BH3 peptide for 20 mins by fluorescence polarization assay
Induced myeloid leukemia cell differentiation protein Mcl-1, sequence (Q07820 whole entry): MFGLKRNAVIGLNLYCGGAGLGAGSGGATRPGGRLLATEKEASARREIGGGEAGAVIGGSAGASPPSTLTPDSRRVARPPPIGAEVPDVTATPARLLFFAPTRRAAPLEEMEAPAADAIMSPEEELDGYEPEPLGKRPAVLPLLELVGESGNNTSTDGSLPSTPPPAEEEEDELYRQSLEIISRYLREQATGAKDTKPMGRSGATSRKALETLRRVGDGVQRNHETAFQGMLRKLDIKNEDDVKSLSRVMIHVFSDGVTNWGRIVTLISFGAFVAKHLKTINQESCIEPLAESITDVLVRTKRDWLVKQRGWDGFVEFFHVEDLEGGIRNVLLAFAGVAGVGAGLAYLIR

Apoptosis regulator Bcl-2, sequence (P10415 whole entry): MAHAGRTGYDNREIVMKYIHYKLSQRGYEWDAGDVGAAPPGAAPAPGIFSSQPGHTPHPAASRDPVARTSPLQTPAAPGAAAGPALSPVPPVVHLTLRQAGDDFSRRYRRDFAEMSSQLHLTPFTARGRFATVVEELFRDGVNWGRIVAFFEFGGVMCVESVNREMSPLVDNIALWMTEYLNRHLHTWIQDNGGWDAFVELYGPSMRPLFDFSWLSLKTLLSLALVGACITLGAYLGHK
Bcl-2-like protein 1, sequence (Q07817 whole entry): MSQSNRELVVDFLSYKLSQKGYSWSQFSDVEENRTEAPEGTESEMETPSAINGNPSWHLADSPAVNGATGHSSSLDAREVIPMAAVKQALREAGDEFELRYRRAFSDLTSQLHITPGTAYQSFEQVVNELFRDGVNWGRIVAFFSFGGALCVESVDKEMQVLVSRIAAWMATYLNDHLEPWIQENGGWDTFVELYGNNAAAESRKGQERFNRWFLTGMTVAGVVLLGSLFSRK

Row | SMILES | Ki [1] | further results
1 | Cc1ccc(S(=O)(=O)NC(=O)[C@H](Cc2ccccc2)N2C(=O)/C(=C/c3ccc(-c4ccccc4)cc3)SC2=S)cc1 | 0.94 µM | Ki (Bcl-2-like protein 1; read-out: Ki): 1.2 µM; IC50 (K562): 44 µM; IC50 (PC-3): 30.1 µM; IC50 (MDA-MB-231): 45.9 µM; Ki [2]: 0.47 µM
2 | COc1ccc2c(c1)c(CC(=O)N[C@@H](Cc1ccccc1)C(=O)NS(=O)(=O)c1ccc([N+](=O)[O-])cc1)c(C)n2-c1ccc(-c2ccccc2)cc1 | 0.91 µM | –
3 | COc1ccc2c(c1)c(CC(=O)N[C@@H](Cc1ccccc1)C(=O)NS(=O)(=O)c1ccc(Cl)c([N+](=O)[O-])c1)c(C)n2-c1ccc(-c2ccccc2)cc1 | 0.58 µM | Ki (Bcl-2-like protein 1): Not Active; IC50 (K562): 13 µM; IC50 (PC-3): 13.9 µM; IC50 (MDA-MB-231): 42.1 µM; Ki [2]: 0.48 µM
4 | COc1ccc2c(c1)c(CC(=O)NS(=O)(=O)c1ccc(NCCSc3ccccc3)c([N+](=O)[O-])c1)c(C)n2-c1ccc(-c2ccccc2)cc1 | > 10 µM | –
5 | COc1ccc2c(c1)c(CC(=O)NS(=O)(=O)c1ccc(N3CCN(C)CC3)c([N+](=O)[O-])c1)c(C)n2-c1ccc(C)cc1 | > 10 µM | –
6 | COc1ccc2c(c1)c(CC(=O)NS(=O)(=O)c1ccc(NC3CCCCC3)c([N+](=O)[O-])c1)c(C)n2-c1ccc(-c2ccccc2)cc1 | > 10 µM | –
7 | COc1ccc2c(c1)c(CC(=O)N[C@@H](Cc1c[nH]c3ccccc13)C(=O)NS(=O)(=O)c1ccc(Cl)c([N+](=O)[O-])c1)c(C)n2-c1ccc(-c2ccccc2)cc1 | 0.83 µM | –
8 | COc1ccc2c(c1)c(CC(=O)NS(=O)(=O)c1ccc(NCc3ccccc3)c([N+](=O)[O-])c1)c(C)n2-c1ccc(C)cc1 | > 10 µM | –
9 | COc1ccc2c(c1)c(CC(=O)N[C@@H](Cc1ccccc1)C(=O)NS(=O)(=O)c1ccccc1)c(C)n2-c1ccc(C)cc1 | > 10 µM | –
10 | COc1ccc(S(=O)(=O)NC(=O)Cc2c(C)n(-c3ccc(-c4ccccc4)cc3)c3ccc(OC)cc23)cc1 | > 10 µM | –
11 | COc1ccc2c(c1)c(CC(=O)N[C@@H](Cc1c[nH]c3ccccc13)C(=O)NS(=O)(=O)c1ccccc1)c(C)n2-c1ccc(-c2ccccc2)cc1 | > 10 µM | –
12 | COc1ccc2c(c1)c(CC(=O)NS(=O)(=O)c1ccc(NCCCc3ccccc3)c([N+](=O)[O-])c1)c(C)n2-c1ccc(-c2ccccc2)cc1 | > 10 µM | –
13 | COc1ccc2c(c1)c(CC(=O)NS(=O)(=O)c1ccc(Cl)c([N+](=O)[O-])c1)c(C)n2-c1ccc(C)cc1 | > 10 µM | –
14 | COc1ccc2c(c1)c(CC(=O)N[C@@H](Cc1ccccc1)C(=O)NS(=O)(=O)c1ccccc1)c(C)n2-c1ccc(-c2ccccc2)cc1 | 0.35 µM | Ki (Bcl-2-like protein 1): Not Active; IC50 (K562): 18.8 µM; IC50 (PC-3): 17.5 µM; IC50 (MDA-MB-231): 33.5 µM; Ki [2]: 0.96 µM
15 | COc1ccc2c(c1)c(CC(=O)N[C@@H](Cc1ccccc1)C(=O)NS(=O)(=O)c1ccc(-c3ccccc3)cc1)c(C)n2-c1ccc(-c2ccccc2)cc1 | > 10 µM | –
16 | COc1ccc2c(c1)c(CC(=O)NS(=O)(=O)c1ccc(N3CCOCC3)c([N+](=O)[O-])c1)c(C)n2-c1ccc(-c2ccccc2)cc1 | > 10 µM | –
17 | COc1ccc2c(c1)c(CC(=O)NS(=O)(=O)c1ccc(Cl)c([N+](=O)[O-])c1)c(C)n2-c1ccc(-c2ccccc2)cc1 | 0.72 µM | –
18 | COc1ccc2c(c1)c(CC(=O)N[C@@H](Cc1ccccc1)C(=O)NS(=O)(=O)c1ccc(Cl)cc1)c(C)n2-c1ccc(-c2ccccc2)cc1 | 0.91 µM | –
19 | COc1ccc(S(=O)(=O)NC(=O)Cc2c(C)n(-c3ccc(C)cc3)c3ccc(OC)cc23)cc1 | > 10 µM | –
20 | COc1ccc2c(c1)c(CC(=O)N[C@@H](Cc1ccc(OCc3ccc([N+](=O)[O-])cc3)cc1)C(=O)NS(=O)(=O)c1ccc(Cl)c([N+](=O)[O-])c1)c(C)n2-c1ccc(C)cc1 | 0.72 µM | –
21 | COc1ccc2c(c1)c(CC(=O)N[C@@H](Cc1ccc(OCc3ccc([N+](=O)[O-])cc3)cc1)C(=O)NS(=O)(=O)c1ccc(Cl)c([N+](=O)[O-])c1)c(C)n2-c1ccc(-c2ccccc2)cc1 | > 10 µM | –
22 | COc1ccc2c(c1)c(CC(=O)NS(=O)(=O)c1ccc(N3CCOCC3)c([N+](=O)[O-])c1)c(C)n2-c1ccc(C)cc1 | > 10 µM | –
23 | COc1ccc2c(c1)c(CC(=O)NS(=O)(=O)c1ccccc1)c(C)n2-c1ccc(-c2ccccc2)cc1 | > 10 µM | –
24 | COc1ccc(S(=O)(=O)NC(=O)[C@H](Cc2ccccc2)NC(=O)Cc2c(C)n(-c3ccc(-c4ccccc4)cc3)c3ccc(OC)cc23)cc1 | 0.47 µM | Ki (Bcl-2-like protein 1): Not Active; IC50 (K562): 27.5 µM; IC50 (PC-3): 23.5 µM; IC50 (MDA-MB-231): 38.6 µM; Ki [2]: 0.88 µM
25 | COc1ccc(S(=O)(=O)NC(=O)[C@H](Cc2c[nH]c3ccccc23)NC(=O)Cc2c(C)n(-c3ccc(-c4ccccc4)cc3)c3ccc(OC)cc23)cc1 | > 10 µM | –
26 | COc1ccc2c(c1)c(CC(=O)NS(=O)(=O)c1ccc(NCc3ccccc3)c([N+](=O)[O-])c1)c(C)n2-c1ccc(-c2ccccc2)cc1 | > 10 µM | –
27 | COc1ccc2c(c1)c(CC(=O)NS(=O)(=O)c1ccc([N+](=O)[O-])cc1)c(C)n2-c1ccc(C)cc1 | > 10 µM | –
